In patent US20080261973A1, “Sulphonamidoaniline Derivatives Being Janus Kinase Inhibitors” (Novartis AG, priority 2005, published 2008) one finds melting point data, which are given here for 37 molecules.

The term melting point denotes the temperature of the solid-liquid transition. As to `CC[C@H](Nc1nc(Nc2cccc(NS(C)(=O)=O)c2)nc2[nH]cnc12)c1ccccc1` [Example 92, N-{3-[6-((S)-1-Phenyl-propylamino)-9H-purin-2-ylamino]-phenyl}-methanesulfonamide], the melting point was 138 to 141 °C.
For `CS(=O)(=O)Nc1cccc(Nc2nc(NCCc3ccccn3)c3nc[nH]c3n2)c1` [Example 10, N-{3-[6-(2-Pyridin-2-yl-ethylamino)-9H-purin-2-ylamino]-phenyl}-methanesulfonamide], the melting point lay within 199 to 202 °C.
On to `CS(=O)(=O)Nc1cccc(Nc2nc(Oc3ccc(F)cc3)c3nc[nH]c3n2)c1` [Example 46, N-{3-[6-(4-Fluoro-phenoxy)-9H-purin-2-ylamino]-phenyl}-methanesulfonamide], for which the melting point lay within 136 to 139 °C.
For `C[C@@H](Nc1nc(Nc2cccc(NS(C)(=O)=O)c2)nc2[nH]cnc12)C(C)(C)C` [Example 39, N-{3-[6-((R)-1,2,2-Trimethyl-propylamino)-9H-purin-2-ylamino]-phenyl}-methanesulfonamide], the melting point was in the range of 169 to 171 °C.
In turn, `CC(C)NCCNc1nc(Nc2cccc(NS(C)(=O)=O)c2)nc2[nH]ccc12` [Example 82, N-{3-[4-(2-Isopropylamino-ethylamino)-7H-pyrrolo[2,3-d]pyrimidin-2-ylamino]-phenyl}-methanesulfonamide] came in with a melting point of 127 to 131 °C.
For the molecule `CC(=O)Nc1cccc(CNc2nc(Nc3cccc(NS(C)(=O)=O)c3)nc3[nH]cnc23)c1` [Example 64, N-(3-{[2-(3-Methanesulfonylamino-phenylamino)-9H-purin-6-ylamino]-methyl}-phenyl)-acetamide], the melting point fell in the range of 159 to 162 °C.
In turn, `CS(=O)(=O)Nc1cccc(Nc2nc(OC3CCCC3)c3cc[nH]c3n2)c1` [Example 43, N-[3-(4-Cyclopentyloxy-7H-pyrrolo[2,3-d]pyrimidin-2-ylamino)-phenyl]-methanesulfonamide] yielded a melting point of 203 to 205 °C.
With `CS(=O)(=O)Nc1cccc(Nc2nc(N3CCN(c4ccncc4)CC3)c3nc[nH]c3n2)c1` [Example 7, N-{3-[6-(4-Pyridin-4-yl-piperazin-1-yl)-9H-purin-2-ylamino]-phenyl}-methanesulfonamide] the figure was 227 to 230 °C; with `CS(=O)(=O)Nc1cccc(Nc2nc(NCc3ccccc3O)c3nc[nH]c3n2)c1` [Example 94, N-{3-[6-(2-Hydroxy-benzylamino)-9H-purin-2-ylamino]-phenyl}-methanesulfonamide], 168 to 171 °C; with `CS(=O)(=O)Nc1cccc(Nc2nc(NCc3ccccc3CO)c3nc[nH]c3n2)c1` [Example 93, N-{3-[6-(2-Hydroxymethyl-benzylamino)-9H-purin-2-ylamino]-phenyl}-methanesulfonamide], 145 to 148 °C.
Consider `C[C@@H](Nc1nc(Nc2cccc(NS(C)(=O)=O)c2)nc2[nH]ccc12)C(C)(C)C` [Example 49, N-{3-[4-((R)-1,2,2-Trimethyl-propylamino)-7H-pyrrolo[2,3-d]pyrimidin-2-ylamino]-phenyl}-methanesulfonamide], for which the melting point lay within 125 to 128 °C.
As for `C[C@H](Nc1nc(Nc2cccc(NS(C)(=O)=O)c2)nc2[nH]cnc12)c1ccccc1` [Example 40, N-{3-[6-((S)-1-Phenyl-ethylamino)-9H-purin-2-ylamino]-phenyl}-methanesulfonamide], the figure is 141 to 144 °C; as for `CS(=O)(=O)Nc1cccc(Nc2nc(NCc3cccc(N)c3)c3nc[nH]c3n2)c1` [Example 72, N-{3-[6-(3-Amino-benzylamino)-9H-purin-2-ylamino]-phenyl}-methanesulfonamide], 170 to 173 °C; as for `CC(C)[C@@H](CO)Nc1nc(Nc2cccc(NS(C)(=O)=O)c2)nc2[nH]ccc12` [Example 84, N-{3-[4-((S)-1-Hydroxymethyl-2-methyl-propylamino)-7H-pyrrolo[2,3-d]pyrimidin-2-ylamino]-phenyl}-methanesulfonamide], 106 to 109 °C.
As for `Cc1cn(-c2nc(Nc3cccc(NS(C)(=O)=O)c3)nc3[nH]cnc23)cn1` [Example 13, N-{3-[6-(4-Methyl-imidazol-1-yl)-9H-purin-2-ylamino]-phenyl}-methanesulfonamide], the melting point is 298 to 301 °C.
Molecule `CCC(C)(C)[C@@H](C)Nc1nc(Nc2cccc(NS(C)(=O)=O)c2)nc2[nH]cnc12` [Example 65, N-{3-[6-((R)-1,2,2-Trimethyl-butylamino)-9H-purin-2-ylamino]-phenyl}-methanesulfonamide] gave a melting point of 143 to 146 °C.
`CS(=O)(=O)Nc1cccc(Nc2nc(NC3CN4CCC3CC4)c3nc[nH]c3n2)c1` (stereo not shown) showed a melting point of 200 to 204 °C.
Turning to `CN1CCN(c2nc(Nc3cccc(NS(C)(=O)=O)c3)nc3[nH]cnc23)CC1` [Example 18, N-{3-[6-(4-Methyl-piperazin-1-yl)-9H-purin-2-ylamino]-phenyl}-methanesulfonamide], the melting point lay within 148 to 151 °C.
Consider `CS(=O)(=O)Nc1cccc(Nc2nc(NCc3ncc[nH]3)c3nc[nH]c3n2)c1` [Example 45, N-(3-{6-[(1H-Imidazol-2-ylmethyl)-amino]-9H-purin-2-ylamino}-phenyl)-methanesulfonamide], for which the melting point was 216 to 220 °C.
As for `C[C@H](Nc1nc(Nc2cccc(NS(C)(=O)=O)c2)nc2[nH]cnc12)C(C)(C)C` [Example 38, N-{3-[6-((S)-1,2,2-Trimethyl-propylamino)-9H-purin-2-ylamino]-phenyl}-methanesulfonamide], the figure is 150 to 153 °C.
The molecule `CS(=O)(=O)Nc1cccc(Nc2nc(NCc3cccnc3)c3nc[nH]c3n2)c1` [Example 15, N-(3-{6-[(Pyridin-3-ylmethyl)-amino]-9H-purin-2-ylamino}-phenyl)-methanesulfonamide] yielded a melting point of 144 to 147 °C.
Molecule `CS(=O)(=O)Nc1cccc(Nc2nc(NCc3cccc(C#N)c3)c3nc[nH]c3n2)c1` [Example 78, N-{3-[6-(3-Cyano-benzylamino)-9H-purin-2-ylamino]-phenyl}-methanesulfonamide] registered a melting point of 128 to 131 °C.
Turning to `CS(=O)(=O)Nc1cccc(Nc2nc(NCc3cccc(O)c3)c3nc[nH]c3n2)c1` [Example 73, N-{3-[6-(3-Hydroxy-benzylamino)-9H-purin-2-ylamino]-phenyl}-methanesulfonamide], the melting point lay in the range of 221 to 225 °C.
As for `CN(CCC#N)c1nc(Nc2cccc(NS(C)(=O)=O)c2)nc2[nH]cnc12` [Example 8, N-(3-{6-[(2-Cyano-ethyl)-methyl-amino]-9H-purin-2-ylamino}-phenyl)-methanesulfonamide], the figure is 218 to 222 °C.
On to `CS(=O)(=O)Nc1cccc(Nc2nc(NCC3CCCCN3)c3nc[nH]c3n2)c1` (stereo not shown) [Example 21, N-(3-{6-[(Piperidin-2-ylmethyl)-amino]-9H-purin-2-ylamino}-phenyl)-methanesulfonamide], for which the melting point fell in the range of 147 to 150 °C.
Regarding `CC(C)N(C)c1nc(Nc2cccc(NS(C)(=O)=O)c2)nc2[nH]cnc12` [Example 36, N-{3-[6-(Isopropyl-methyl-amino)-9H-purin-2-ylamino]-phenyl}-methanesulfonamide], the melting point is 144 to 147 °C.
`CS(=O)(=O)Nc1cccc(Nc2nc(NCC(O)CO)c3nc[nH]c3n2)c1` (stereo not shown) [Example 11, N-{3-[6-(2,3-Dihydroxy-propylamino)-9H-purin-2-ylamino]-phenyl}-methanesulfonamide] registered a melting point of 164 to 168 °C.
The molecule `CS(=O)(=O)Nc1cccc(Nc2nc(OCC3CCCCC3)c3nc[nH]c3n2)c1` [Example 24, N-[3-(6-Cyclohexylmethoxy-9H-purin-2-ylamino)-phenyl]-methanesulfonamide] registered a melting point of 169 to 172 °C.
In the case of `CS(=O)(=O)Nc1cccc(Nc2nc(NCCN3CCOCC3)c3nc[nH]c3n2)c1` [Example 22, N-{3-[6-(2-Morpholin-4-yl-ethylamino)-9H-purin-2-ylamino]-phenyl}-methanesulfonamide], the melting point was in the range of 233 to 237 °C.
As for `CC(C)(C)CNc1nc(Nc2cccc(NS(C)(=O)=O)c2)nc2[nH]cnc12` [Example 50, N-{3-[6-(2,2-Dimethyl-propylamino)-9H-purin-2-ylamino]-phenyl}-methanesulfonamide], the figure is 270 to 273 °C; as for `COCCOc1nc(Nc2cccc(NS(C)(=O)=O)c2)nc2[nH]cnc12` [Example 32, N-{3-[6-(2-Methoxy-ethoxy)-9H-purin-2-ylamino]-phenyl}-methanesulfonamide], 201 to 204 °C.
For the molecule `CS(=O)(=O)Nc1ccc(Nc2nc(NC3CCCC3)c3nc[nH]c3n2)cc1` [Example 44, N-[4-(6-Cyclopentylamino-9H-purin-2-ylamino)-phenyl]-methanesulfonamide], the melting point fell in the range of 261 to 265 °C.
For `CS(=O)(=O)Nc1cccc(Nc2nc(OC3CCCC3)c3nc[nH]c3n2)c1` [Example 23, N-[3-(6-Cyclopentyloxy-9H-purin-2-ylamino)-phenyl]-methanesulfonamide], the melting point lay within 137 to 140 °C.
For the molecule `CS(=O)(=O)Nc1cccc(Nc2nc(NCCO)c3nc[nH]c3n2)c1` [Example 17, N-{3-[6-(2-Hydroxy-ethylamino)-9H-purin-2-ylamino]-phenyl}-methanesulfonamide], the melting point was in the range of 163 to 166 °C.
For `CS(=O)(=O)Nc1cccc(Nc2nc(NCCc3c[nH]cn3)c3nc[nH]c3n2)c1` [Example 4, N-(3-{6-[2-(1H-Imidazol-4-yl)-ethylamino]-9H-purin-2-ylamino]-phenyl}-methanesulfonamide], the melting point lay within 205 to 210 °C.
Molecule `C[C@H](Nc1nc(Nc2cccc(NS(C)(=O)=O)c2)nc2[nH]ccc12)C(C)(C)C` [Example 51, N-{3-[4-((S)-1,2,2-Trimethyl-propylamino)-7H-pyrrolo[2,3-d]pyrimidin-2-ylamino]-phenyl}-methanesulfonamide] came in with a melting point of 128 to 132 °C.
`CC(C)(CO)Nc1nc(Nc2cccc(NS(C)(=O)=O)c2)nc2[nH]cnc12` [Example 16, N-{3-[6-(2-Hydroxy-1,1-dimethyl-ethylamino)-9H-purin-2-ylamino]-phenyl}-methanesulfonamide] returned a melting point of 215 to 218 °C.
